Legend:
CCRF-CEM = experiment: NCI60 five-dose screen; assay type: cell-based; conditions: Homo sapiens, leukemia
HL-60 (TB) = experiment: NCI60 five-dose screen; assay type: cell-based; conditions: Homo sapiens, leukemia
MOLT-4 = experiment: NCI60 five-dose screen; assay type: cell-based; conditions: Homo sapiens, MOLT-4, leukemia
RPMI-8226 = experiment: NCI60 five-dose screen; assay type: cell-based; conditions: Homo sapiens, RPMI-8226, leukemia
NCI-H322M = experiment: NCI60 five-dose screen; assay type: cell-based; conditions: Homo sapiens, NSC lung cancer
NCI-H522 = experiment: NCI60 five-dose screen; assay type: cell-based; conditions: Homo sapiens, NCI-H522, NSC lung cancer
HCC-2998 = experiment: NCI60 five-dose screen; assay type: cell-based; conditions: Homo sapiens, HCC-2998, colon cancer
KM12 = experiment: NCI60 five-dose screen; assay type: cell-based; conditions: Homo sapiens, KM12, colon cancer
SW-620 = experiment: NCI60 five-dose screen; assay type: cell-based; conditions: Homo sapiens, SW-620, colon cancer
SF-268 = experiment: NCI60 five-dose screen; assay type: cell-based; conditions: Homo sapiens, SF-268, CNS cancer
SF-295 = experiment: NCI60 five-dose screen; assay type: cell-based; conditions: Homo sapiens, SF-295, CNS cancer
SNB-19 = experiment: NCI60 five-dose screen; assay type: cell-based; conditions: Homo sapiens, SNB-19, CNS cancer
U251 = experiment: NCI60 five-dose screen; assay type: cell-based; conditions: Homo sapiens, U-251, U251, CNS cancer
MALME-3M = experiment: NCI60 five-dose screen; assay type: cell-based; conditions: Homo sapiens, melanoma
SK-MEL-28 = experiment: NCI60 five-dose screen; assay type: cell-based; conditions: Homo sapiens, SK-MEL-28, melanoma
UACC-257 = experiment: NCI60 five-dose screen; assay type: cell-based; conditions: Homo sapiens, UACC-257, melanoma
OVCAR-5 = experiment: NCI60 five-dose screen; assay type: cell-based; conditions: Homo sapiens, OVCAR-5, ovarian cancer
OVCAR-8 = experiment: NCI60 five-dose screen; assay type: cell-based; conditions: Homo sapiens, OVCAR-8, ovarian cancer
NCI/ADR-RES = experiment: NCI60 five-dose screen; assay type: cell-based, human; conditions: Homo sapiens, ovarian cancer
SK-OV-3 = experiment: NCI60 five-dose screen; assay type: cell-based; conditions: Homo sapiens, SK-OV-3, ovarian cancer
SN12C = experiment: NCI60 five-dose screen; assay type: cell-based; conditions: Homo sapiens, renal cancer
TK-10 = experiment: NCI60 five-dose screen; assay type: cell-based; conditions: Homo sapiens, TK-10, renal cancer
UO-31 = experiment: NCI60 five-dose screen; assay type: cell-based; conditions: Homo sapiens, UO-31, renal cancer
MDA-MB-231/ATCC = experiment: NCI60 five-dose screen; assay type: cell-based; conditions: Homo sapiens, breast cancer
HS 578T = experiment: NCI60 five-dose screen; assay type: cell-based; conditions: Homo sapiens, breast cancer
T-47D = experiment: NCI60 five-dose screen; assay type: cell-based; conditions: Homo sapiens, T47D, breast cancer
MDA-MB-468 = experiment: NCI60 five-dose screen; assay type: cell-based; conditions: Homo sapiens, MDA-MB-468, breast cancer
Human CYP19 (aromatase) = molecular target: T1, Human CYP19 (aromatase) (Homo sapiens, UniProt P11511); experiment: Aromatase inhibition assay (DBF fluorometric substrate); assay type: biochemical; conditions: active defined as IC50 < 12.5 µM
T1 construct: purchased GENTEST, Woburn, MA 456260; host or cells: baculovirus/insect cells
T1 sequence (P11511 1-503): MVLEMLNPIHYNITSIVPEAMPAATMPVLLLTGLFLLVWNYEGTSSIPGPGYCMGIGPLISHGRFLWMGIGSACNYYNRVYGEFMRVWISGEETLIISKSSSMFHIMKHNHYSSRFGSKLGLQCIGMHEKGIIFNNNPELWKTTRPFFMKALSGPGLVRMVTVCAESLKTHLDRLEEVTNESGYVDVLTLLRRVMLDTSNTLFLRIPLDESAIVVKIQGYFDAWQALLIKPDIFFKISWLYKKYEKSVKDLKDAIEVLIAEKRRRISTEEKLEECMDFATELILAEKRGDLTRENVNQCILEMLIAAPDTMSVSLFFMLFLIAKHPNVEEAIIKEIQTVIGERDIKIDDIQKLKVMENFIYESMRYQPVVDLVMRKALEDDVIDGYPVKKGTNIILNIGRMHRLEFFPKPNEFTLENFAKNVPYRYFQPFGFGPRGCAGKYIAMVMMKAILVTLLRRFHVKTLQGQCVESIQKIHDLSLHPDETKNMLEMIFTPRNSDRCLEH
Procedure, shortened: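 Insect-cell-expressed human CYP19 Supersomes with oxidoreductase turned over DBF for 30 min at 37 °C after a 10 min 37 °C pre-incubation with cofactor. NaOH quench; product measured by fluorescence, excitation 490 nm, emission 530 nm.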

[1] = read-out: LC50 (the source's name)

IC50 (Human CYP19 (aromatase)): 2.6 ± 0.5 µM
SMILES: O=C(N/N=C/c1[nH]ccc1Cl)c1[nH]c2ccc(Br)cc2c1-c1ccccc1 [Derivative 3g, (E)-5-Bromo-N′-((3-chloro-1H-pyrrol-2-yl)methylene)-3-phenyl-1H-indole-2-carbohydrazide]
GI50 (CCRF-CEM): 1.53 µM
CC50 (CCRF-CEM; [1]): > 100 µM
GI50 (HL-60 (TB)): 0.891 µM
CC50 (HL-60 (TB); [1]): > 100 µM
GI50 (MOLT-4): 1.71 µM
CC50 (MOLT-4; [1]): > 100 µM
GI50 (RPMI-8226): 0.855 µM
CC50 (RPMI-8226; [1]): > 100 µM
GI50 (NCI-H322M): 3.14 µM
CC50 (NCI-H322M; [1]): 48.8 µM
GI50 (NCI-H522): 0.233 µM
CC50 (NCI-H522; [1]): 20.4 µM
GI50 (HCC-2998): 1.23 µM
CC50 (HCC-2998; [1]): 28.6 µM
GI50 (KM12): 0.488 µM
CC50 (KM12; [1]): 34.6 µM
GI50 (SW-620): 0.499 µM
CC50 (SW-620; [1]): 50.2 µM
GI50 (SF-268): 1.76 µM
CC50 (SF-268; [1]): 53 µM
GI50 (SF-295): 0.501 µM
CC50 (SF-295; [1]): 26 µM
GI50 (SNB-19): 1.06 µM
CC50 (SNB-19; [1]): 35.4 µM
GI50 (U251): 0.63 µM
CC50 (U251; [1]): 37.7 µM
GI50 (MALME-3M): 0.596 µM
CC50 (MALME-3M; [1]): 48.4 µM
GI50 (SK-MEL-28): 0.909 µM
CC50 (SK-MEL-28; [1]): 47.5 µM
GI50 (UACC-257): 0.738 µM
CC50 (UACC-257; [1]): 52 µM
GI50 (OVCAR-5): 1.1 µM
CC50 (OVCAR-5; [1]): 35.7 µM
GI50 (OVCAR-8): 0.481 µM
CC50 (OVCAR-8; [1]): 27.7 µM
GI50 (NCI/ADR-RES): 0.219 µM
CC50 (NCI/ADR-RES; [1]): 10.5 µM
GI50 (SK-OV-3): 11.6 µM
CC50 (SK-OV-3; [1]): 64.1 µM
GI50 (SN12C): 1.34 µM
CC50 (SN12C; [1]): 29.2 µM
GI50 (TK-10): 7.16 µM
CC50 (TK-10; [1]): 49.5 µM
GI50 (UO-31): 0.577 µM
CC50 (UO-31; [1]): 35.7 µM
GI50 (MDA-MB-231/ATCC): 2.07 µM
CC50 (MDA-MB-231/ATCC; [1]): 28.2 µM
GI50 (HS 578T): 0.59 µM
CC50 (HS 578T; [1]): > 100 µM
GI50 (T-47D): 2.5 µM
CC50 (T-47D; [1]): 81.9 µM
GI50 (MDA-MB-468): 0.297 µM
CC50 (MDA-MB-468; [1]): 24.7 µM
